Experimental data from patent US11116817B2, “Antimicrobial agents and compositions comprising the same” (THE CURATORS OF THE UNIVERSITY OF MISSOURI, priority 2017, dated 2021).
Positions of bridges follow the written chain, without caps; N, C: chain ends. Non-standard residues stand in square brackets, D forms with d. No end group written: not given here. Abu = CC[C@H](N)C(=O)O

What was measured:
CHO-K1 cells = test: Cell cytotoxicity assay (MTT); assay type: cell-based, hamster
Method: The Cell Cytotoxicity Assay includes the following procedures. Mouse immature dendritic cell line, JAWSII (ATCC CRL-11904™), was cultured in Alpha minimum essential medium with ribonucleosides, deoxyribonucleosides, 4 mM L-glutamine, 1 mM sodium pyruvate, and 5 ng/ml murine Granulocyte macrophage colony-stimulating factor (GM-CSF) then supplemented with 20% FBS, 100 U/ml penicillin, and 100 μg/ml streptomycin at 37° C. in humidified air with 5% CO2. CCR-2 transfected CHO-K1 cells were cultured in RPMI-1640 supplemented with 10% FBS, 2 mM L-glutamine, 100 units/ml penicillin and streptomycin, and 500 μg/ml G418 at 37° C. in humidified air with 5% CO2. The cytotoxicity of CAMPs (SEQ ID NOs: 1, 2, 3, and 4) to JASWII and CHO-K1 cells was determined using MTT (3-(4,5-dimethylthiazol-2-yl)-2,5-diphenyltetrazolium bromide, Thermo Fisher Scientific) cell proliferation assay. Cells (5×10^3 cells/well) in 96-well microtiter plates were treated with peptides at 64, 128, 256, and 512 μg/ml for 4, 12, 24, and 48 hours at 37° C. After treatment, 20 μl of 12 mM MTT solution was added to each well and the plate was incubated for 4 hours. The medium in each well was replaced with 100 μl of dimethyl sulfoxide (DMSO, Sigma-Aldrich) to dissolve MTT crystals. The plates were read using a spectrophotometer at 540 nm. The viability of treated cells was expressed as the percentage of viability relative to the untreated control. The experiment was performed in triplicate.
Chicken macrophage cell lines MQ-NCSU and HD11 were maintained in RPMI-1640 media supplemented with 10% fetal bovine serum (FBS), 2% chicken serum, 100 U/ml penicillin and 100 μg/ml streptomycin (Sigma-Aldrich) at 37° C. in humidified air with 5% CO2. CHO-K1 cells were cultured in the same media without 2% chicken serum. For CCR2-transfected CHO-K1 cells, medium was supplemented with 500 μg/ml G418 was added (Sigma-Aldrich). Murine immature dendritic cell line JAWSII (ATCC CRL-11904™) was cultured in Alpha minimum essential medium containing 4 mM L-glutamine, 1 mM sodium pyruvate, 5 ng/ml murine Granulocyte macrophage colony-stimulating factor (GM-CSF), 20% FBS, 100 U/ml penicillin and 100 μg/ml streptomycin at 37° C. in humidified air with 5% CO2. The cell cytotoxicity was determined using the MTT (3-(4,5-dimethylthiazol-2-yl)-2,5-diphenyltetrazolium bromide cell proliferation assay according to the manufacturer's instruction (Thermo Fisher Scientific). Briefly, cells (5×10^3 cells/well) were seeded in 96-well tissue culture plates, incubated overnight and treated with the analogues at concentrations of 4, 16, 64 and 256 μg/ml for 4, 12, 24 and 48 hours at 37° C. After treatment, […] 12 mM MTT solution was added to each well. The plate was incubated for 4 hours and read at 540 nm. Viability was expressed as percentage of viable cells relative to the untreated control. The experiments were performed in triplicate.

mouse red blood cells = assay type: cell-based
Method: The Hemolytic Assay includes the following procedures. Briefly, mouse red blood cells (RBCs, Innovative research, Novi, Mich.) were washed three times with phosphate-buffered saline (PBS, pH 7.4), centrifuged at 1000×g for 10 minutes, and re-suspended in PBS to 10% (v/v). The RBCs were treated with CAMPs (SEQ ID NOs: 1, 2, 3, and 4) at various concentrations ranging from 4 to 512 μg/ml (2-fold serial dilutions) at 37° C. for 1 hours. PBS and 0.2% Triton X-100 were used as negative and positive controls, respectively. The supernatant was transferred to a 96-well flat-bottomed polystyrene plate (Thermo Fisher Scientific), and the amount of hemoglobin released into the supernatant was determined by measuring the absorbance with a spectrophotometer at 540 nm. Hemolytic activity was expressed as the percentage of hemolysis and calculated using the following equation: hemolysis (%)=(As−A0)/(A100−A0)×100, where As is the absorbance of the sample, A100 is the absorbance of completely lysed RBCs in 0.2% Triton X-100, and A0 is the absorbance in the complete absence of hemolysis (PBS treatment). The assay was performed in triplicate. Therapeutic index (T.I.) was calculated according to a previously published formula: T.I.=MHC/MICGM. MHC was the minimum hemolytic concentration that caused 5% hemolysis of mouse RBCs. The MICGM was the minimum inhibitory concentration of the peptide concentrations against bacterial growth after the geometric mean was calculated. MICG− was the MICGM for Gram-negative bacteria; MICG+ was the MICGM for Gram-positive bacteria.

JAWSII cells = test: Chemotaxis assay (48-well microchemotaxis chamber); assay type: cell-based, mouse; conditions: for chemotactic index (C.I.): peptide 64 μg/ml
Method: (§1) Migration of JAWSII and CCR-2 transfected CHO-K1 cells in response to CAMPs (SEQ ID NOs: 1, 2, 3, and 4) was determined using a 48-well microchemotaxis chamber technique as previously described. Chemotaxis buffer (Minimum Essential Medium containing 0.1% BSA, 100 U/ml penicillin, and 100 μg/ml streptomycin) and bacterial peptide N-Formyl-methionyl-leucyl-phenylalanine (fMLF, Sigma-Aldrich) were included as negative and positive controls, respectively. The results were presented as chemotactic index (C.I.)=number of migrated cells induced by CAMPs (SEQ ID NOs: 1, 2, 3, and 4)/number of migrated cells induced by chemotactic buffer. The assay was repeated five times.
as §1, with “CCR2-CHO-K1” for “CCR-2 transfected CHO-K1”, “the analogues” for “CAMPs (SEQ ID NOs: 1, 2, 3, and 4)”, “For JAWSII cells, chemotaxis” for “Chemotaxis”, “(C.I.). C.I.=number” for “(C.I.)=number”, “the analogues/number” for “CAMPs (SEQ ID NOs: 1, 2, 3, and 4)/number”

S. aureus (ATCC 29213) = assay type: cell-based; conditions: standard conditions, CLSI guidelines
Method: (§2) The minimum inhibitory concentrations (MIC) of AvBDs (SEQ ID NOs: 5, 6, 7, 8, 9, 10, 11, 12, and 13) were determined under low salt and standard conditions according to the guidelines of the Clinical and Laboratory Standards Institute (CLSI). […] An equal volume […] of bacterial suspension was added to each well of the plate. The final bacterial concentration in the wells was 5×10^5 CFU/ml. […] To complement MIC-1s assays, the minimum bactericidal concentrations (MBC) were evaluated by sub-culturing the contents of the first two clear wells obtained in the MIC-1s assay onto LB agar plates. All assays were conducted in triplicate. The lowest peptide concentration inhibiting about, at least, or more than 99% of bacterial growth was defined as MBC-1s. The analogues were regarded as bactericidal when the MBC was determined to be no more than four times the MIC.

[1] = tested on: P. aeruginosa (ATCC 27853); assay type: cell-based; conditions: low salt condition (5 mM NaCl)
Method: as §2

[2] = tested on: E. coli, S. Typhimurium, P. aeruginosa and S. aureus; test: Antimicrobial activity assay (colony counting), Example Two, statements over all four bacteria; assay type: cell-based; conditions: for impact of NaCl on the killing activity: NaCl 5 to 150 mM; for killing activity compared with parent peptide: 2 to 128 μg/ml, 37° C., 2 hours
Method: (§3) Escherichia coli (ATCC 25922), Pseudomonas aeruginosa (ATCC 27853), Salmonella enteric serovar Typhimurium (ATCC 14028) and Staphylococcus aureus (ATCC 29213) were used to assess the antimicrobial activity of AvBD analogues (SEQ ID NOs: 5, 6, 7, 8, 9, 10, 11, 12, and 13). All bacterial strains were grown on Luria-Bertani (LB) agar plates or Trypticase Soy Agar with 5% Sheep Blood (TSA, Thermo Fisher Scientific) plates at 37° C. Antimicrobial activity was determined by a colony counting assay. In brief, bacteria were suspended in 100-fold diluted Mueller Hinton broth with 5 mM NaCl (minimal growth medium) to obtain a final bacterial concentration of 2×10^5 CFU/ml. Twenty-five microliters of bacterial suspension and 25 μl of AvBD analogue (SEQ ID NOs: 5, 6, 7, 8, 9, 10, 11, 12, and 13) solution were mixed in the wells of a 96-well polypropylene microtiter plate (Nunc™, Thermo Fisher Scientific). The final peptide concentrations were 2, 4, 8, 16, 32, 64 and 128 μg/ml. The minimal growth medium without AvBD peptide (SEQ ID NO: 5, 6, 7, 8, 9, 10, 11, 12, and 13) was included as a negative control. The bacterial-peptide mixtures were incubated at 37° C. for 2 hours, 10-fold serially diluted and plated on LB agar plates. The numbers of bacterial colonies were enumerated after 16 hours of incubation at 37° C. Antimicrobial activity was expressed as percent of killing using the following formula: (CPUcontrol−CFUtreated)/CFUcontrol×100%. To assess the resistance of AvBD analogues (SEQ ID NOs: 5, 6, 7, 8, 9, 10, 11, 12, and 13) to sodium chloride (NaCl), antimicrobial assays were carried out in the presence of 5 mM, 50 mM, 100 mM or 150 mM NaCl. All assays were performed in triplicate.

[3] = tested on: Salmonella enteric serovar Typhimurium (ATCC 14028); test: Antimicrobial activity assay (colony counting), Example Two; assay type: cell-based, S. Typhimurium; conditions: 2 to 128 μg/ml, 37° C., 2 hours
Method: as §3, with “The numbers of bacterial colonies were enumerated after 16 hours of incubation at 37° C.” left out, “To assess the resistance of AvBD analogues (SEQ ID NOs: 5, 6, 7, 8, 9, 10, 11, 12, and 13) to sodium chloride (NaCl), antimicrobial assays were carried out in the presence of 5 mM, 50 mM, 100 mM or 150 mM NaCl. All assays were performed in triplicate.” left out

[4] = tested on: CCR-2 transfected CHO-K1 cells; test: Chemotaxis assay (48-well microchemotaxis chamber); assay type: cell-based, hamster
Method: as §1
as §1, with “CCR2-CHO-K1” for “CCR-2 transfected CHO-K1”, “the analogues” for “CAMPs (SEQ ID NOs: 1, 2, 3, and 4)”, “For JAWSII cells, chemotaxis” for “Chemotaxis”, “(C.I.). C.I.=number” for “(C.I.)=number”, “the analogues/number” for “CAMPs (SEQ ID NOs: 1, 2, 3, and 4)/number”

[5] = 64, 128, 256, and 512 μg/ml for 4 to 48 hours

| Substance | T.I. of G+ (therapeutic index, MHC/MICGM) (mouse red blood cells) | T.I. of G− (therapeutic index, MHC/MICGM) (mouse red blood cells) | MBS-Is [1] [µg/mL] | impact of NaCl on the killing activity [2] | chemotactic activity [4] | also measured |
| --- | --- | --- | --- | --- | --- | --- |
| Ac-LRRLKPLIRPWLRPLRRWWW-NH2 [CAMP-A] | 6.54±2.01 | 8.72±2.41 | – | – | – | effect on cell viability (CHO-K1 cells; concentration at about 128 μg/ml or greater): somewhat decreased |
| Ac-PIHRRIPPRWPRLKRRW-NH2 [CAMP-t2, PIHRRIPPRWPRLKRRW] | >13.45 ± 4.48 | >5.45 ± 2.54 | – | – | – | effect on cell viability (CHO-K1 cells; [5]): did not significantly affect cell viability |
| Ac-RKFLRRRGEVAHFSQKSLGLYCWWW-NH2 [CAMP-t1] | >3.27 ± 2.41 | >4.36 ± 1.21 | – | – | – | effect on cell viability (CHO-K1 cells; [5]): did not significantly affect cell viability |
| Ac-RRRWRKRRWWW-NH2 [CAMP-B, RRRWRKRRWWW] | > 12.36±4.18 | > 10.90±4.0 | – | – | – | effect on cell viability (CHO-K1 cells; [5]): did not significantly affect cell viability |
| GPDSCNHDRGLCRVGNCNPGEYLAKYCFEPVILCCKPLSPTPTKT (disulfide 5-34, 12-27, 17-35) [AvBD-12, reference compound] | – | – | >256 | – | – | chemotactic index (C.I.) (JAWSII cells): 6.62; MIC (S. aureus (ATCC 29213)): >256^ μg/ml |
| GPDS[Abu]NHDRGLCRVGNCNPGEYLAKYCFEPVIL[Abu]CKPLSPTPTKT (disulfide 12-27, 17-35) [AvBD-12A4] | – | – | >256 | some impact on killing activity due to salt | – | killing activity compared with AvBD-12 [3]: somewhat reduced |
| GPDS[Abu]NHDRGL[Abu]RVGNCNPGEYLAKY[Abu]FEPVIL[Abu]CKPLSPTPTKT (disulfide 17-35) [AvBD-12A5] | – | – | >256 | some impact on killing activity due to salt | did not appear to exhibit chemotactic activity | chemotactic activity (JAWSII cells): did not appear to exhibit chemotactic activity |
| GPDS[Abu]NHDRGL[Abu]RVGN[Abu]NPGEYLAKY[Abu]FEPVIL[Abu][Abu]KPLSPTPTKT [AvBD-12A6] | – | – | >256 | some impact on killing activity due to salt | did not appear to exhibit chemotactic activity | chemotactic activity (JAWSII cells): did not appear to exhibit chemotactic activity |
| GPHSANHVRGLARVGNANPGLYLAKYAFIPVILAAKPLSPTPTKT [AvBD-12A1] | – | – | 256 | some impact from NaCl | mild or little chemotactic activity | killing activity compared with parent peptide [2]: more effective than the parent peptide AvBD-12 |
| GPRSANHKRGLARVGNANPGKYLAKYSFRPVILSSKPLSPTPTKT [AvBD-12A3] | – | – | – | – | – | effect on cell viability (CHO-K1 cells; 4, 16, 64, 256 μg/ml for 4, 12, 24, and 48 hour): did not appear to have any effect on cell viability |
| GPRSSNHKRGLSRVGNSNPGKYLAKYAFRPVILAAKPLSPTPTKT [AvBD-12A2] | – | – | 32 | less adverse impact | mild or little chemotactic activity | chemotactic index (C.I.) (JAWSII cells): 2.37; killing activity compared with parent peptide [2]: more effective than the parent peptide AvBD-12 |
